Patent US12624024B2, “EP2 antagonist compounds” (Reservoir Neuroscience, Inc., priority 2021, dated 2026)

Columns and labels:
[1] = target: T1, EP2 receptor (Homo sapiens, UniProt P43116); assay: EP2 Potency Assay (cAMP TR-FRET, CHO-K1 cells transfected with EP2 receptor, PGE2 at EC80); assay type: cell-based; conditions: CHO-K1 cells expressing EP2, prostaglandin E2 at EC80, read-out: EP2 Potency (IC50 category)
T1 construct: expressed in transfected cells; host or cells: CHO-K1 cells (ATCC), transient transfection with FuGENE 6
How it was run: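 CHO-K1 cells transiently transfected with EP2 and seeded 24 h after transfection. IC50 from curve fit of percent inhibition versus concentration.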

[2] = Human Hepatocyte Stability; assay type: in vitro ADME; conditions: human hepatocytes 0.5×10^6 cells/mL, 120 min; for half-life at 1 μM: read-out: T1/2 (hepatic); for microsomal CLint at 1 μM: read-out: in vitro CLint (hepatic)
Protocol: The tested compound was incubated in duplicate with incubation media (Williams' Medium E with 1× GlutaMAX) containing human hepatocytes (0.5×10^6 cells/mL). These incubations were carried out at a final test concentration of 1 μM over a total incubation period of 120 minutes. Samples were taken at 0, 15, 30, 60, 90 and 120 min and the reaction was terminated by addition of acetonitrile containing internal standard (100 nM alprazolam, 200 nM labetalol, 200 nM caffeine and 200 nM diclofenac). Verapamil was used as the positive control in this study. The samples were analyzed by UPLC-MS/MS to determine the concentration of the tested compound and the percentage remaining, intrinsic clearance (in vitro CLint) and half-life (t½) values were calculated.
Chromatographic analyses were performed on a Shimadzu UPLC apparatus (Kyoto, Japan) consisting of a gradient pump (model LC-30AD), an automatic injector (model HTC PAL System) and an on-line degasser (model DGU-20A5R). Detection was a triple quadrupole tandem mass spectrometer equipped with a turbo ion spray interface (API 4000/Triple Quad 4500/Triple Quad 5500/Triple Quad 6500). Data acquisition and integration were carried out with LC-MS software (Analyst 1.6) linked directly to the LC-MS/MS system. Chromatographic separations were achieved on a XSelect Hss T3 2.5μ (2.1×30 mm) Column. The mobile phase was 0.1% formic acid in water (A) and 0.1% formic acid in acetonitrile (B). The flow rate was 1.0 mL/min and column was maintained at 40° C.
Half-life (T1/2) data is measured in minutes, and in Table B2, the data is grouped into categories of by the following rules: • T1/2 (hepatic): A=200+; B=100 to 200; C=50 to 100; and D<50.
In vitro clearance (CLint) data is measured in μL/min/mg prot, and in Table B3, the data is grouped into categories of by the following rules: • CLint (microsomal): A<5; B=5 to 10; C=10 to 20; and D=20+.

T1 sequence (P43116 whole entry): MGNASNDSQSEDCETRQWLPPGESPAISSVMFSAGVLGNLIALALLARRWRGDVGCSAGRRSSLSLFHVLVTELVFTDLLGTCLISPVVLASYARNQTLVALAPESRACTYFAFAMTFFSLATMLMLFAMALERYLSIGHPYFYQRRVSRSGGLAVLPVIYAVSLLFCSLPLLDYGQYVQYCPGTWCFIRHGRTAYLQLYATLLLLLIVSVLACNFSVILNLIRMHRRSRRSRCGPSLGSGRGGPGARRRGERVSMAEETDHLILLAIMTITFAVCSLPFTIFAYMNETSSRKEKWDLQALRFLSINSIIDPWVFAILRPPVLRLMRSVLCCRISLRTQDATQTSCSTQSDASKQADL

Structure (SMILES) | IC50 [1] | half-life at 1 μM [2] | microsomal CLint at 1 μM [2]
COc1ncc(CN2CCOc3c(Cl)cc(-n4ccc5c(F)c(F)ccc54)cc3C2)cn1 [Compound 25] | 0.1 to 0.5 µM | 1.67 to 3.33 h | 10 to 20 µL/min/mg
COCc1ncc(CN2CCOc3c(Cl)cc(-n4ccc5cc(F)ccc54)cc3C2)cn1 [Compound 142] | 0.1 to 0.5 µM | > 3.33 h | 5 to 10 µL/min/mg
O=C(O)c1ncc(CN2CCOc3c(Cl)cc(-n4ccc5cc(F)ccc54)cc3C2)cn1 [Compound 144, 5-{[9-chloro-7-(5-fluoroindol-1-yl)-3,5-dihydro-2H-1,4-benzoxazepin-4-yl]methyl}pyrimidine-2-carboxylic acid] | < 0.1 µM | > 3.33 h | < 5 µL/min/mg
Cc1[nH]c(=O)ncc1CN1CCOc2c(Cl)cc(-n3ccc4cc(F)ccc43)cc2C1 [Compound 156] | < 0.1 µM | 1.67 to 3.33 h | 5 to 10 µL/min/mg
Nc1ccc(CN2CCOc3c(Cl)cc(-n4ccc5cc(F)ccc54)cc3C2)nn1 [Compound 167] | 1 to 5 µM |  | 
CC(C)(C)OC(=O)Nc1ccc(CN2CCOc3c(Cl)cc(-n4ccc5cc(F)ccc54)cc3C2)nn1 [Compound 168] | > 5 µM |  | 
O=c1cc(CN2CCOc3c(Cl)cc(-n4ccc5cc(F)ccc54)cc3C2)cn[nH]1 [Compound 169, 5-{[9-chloro-7-(5-fluoroindol-1-yl)-3,5-dihydro-2H-1,4-benzoxazepin-4-yl]methyl}-2H-pyridazin-3-one] | < 0.1 µM | 1.67 to 3.33 h | 5 to 10 µL/min/mg
CC(C)(C)OC(=O)Nc1cnc(CN2CCOc3c(Cl)cc(-n4ccc5cc(F)ccc54)cc3C2)cn1 [Compound 171] | > 5 µM |  | 
COc1cnc(CN2CCOc3c(Cl)cc(-n4ccc5cc(F)ccc54)cc3C2)cn1 [Compound 172] | 1 to 5 µM |  | 
Fc1ccc2c(ccn2-c2cc(Cl)c3c(c2)CN(Cc2cnc(Cl)cn2)CCO3)c1 [Compound 173] | 1 to 5 µM |  | 
O=c1ccc(CN2CCOc3c(Cl)cc(-n4ccc5cc(F)ccc54)cc3C2)c[nH]1 [Compound 175] | 0.1 to 0.5 µM |  | 
O=c1cc[nH]cc1CN1CCOc2c(Cl)cc(-n3ccc4cc(F)ccc43)cc2C1 [Compound 176] | 1 to 5 µM |  | 
CC(C)(C)OC(=O)Nc1cc(CN2CCOc3c(Cl)cc(-n4ccc5cc(F)ccc54)cc3C2)ccn1 [Compound 178] | > 5 µM |  | 
Nc1cc(CN2CCOc3c(Cl)cc(-n4ccc5cc(F)ccc54)cc3C2)ccn1 [Compound 179, 4-{[9-chloro-7-(5-fluoroindol-1-yl)-3,5-dihydro-2H-1,4-benzoxazepin-4-yl]methyl}pyridin-2-amine] | 1 to 5 µM |  | 
CNc1cc(CN2CCOc3c(Cl)cc(-n4ccc5cc(F)ccc54)cc3C2)ccn1 [Compound 180, 4-{[9-chloro-7-(5-fluoroindol-1-yl)-3,5-dihydro-2H-1,4-benzoxazepin-4-yl]methyl}-N-methylpyridin-2-amine] | 1 to 5 µM |  | 
CN(C)c1cc(CN2CCOc3c(Cl)cc(-n4ccc5cc(F)ccc54)cc3C2)ccn1 [Compound 181, 4-{[9-chloro-7-(5-fluoroindol-1-yl)-3,5-dihydro-2H-1,4-benzoxazepin-4-yl]methyl}-N,N-dimethylpyridin-2-amine] | 1 to 5 µM |  | 
Fc1ccc2c(ccn2-c2cc(Cl)c3c(c2)CN(Cc2ccnc(NC4COC4)c2)CCO3)c1 [Compound 182, 4-{[9-chloro-7-(5-fluoroindol-1-yl)-3,5-dihydro-2H-1,4-benzoxazepin-4-yl]methyl}-N-(oxetan-3-yl)pyridin-2-amine] | 1 to 5 µM |  | 
OCc1cc(CN2CCOc3c(Cl)cc(-n4ccc5cc(F)ccc54)cc3C2)ccn1 [Compound 183] | 0.1 to 0.5 µM |  | 
NCc1cc(CN2CCOc3c(Cl)cc(-n4ccc5cc(F)ccc54)cc3C2)ccn1 [Compound 184, 1-(4-{[9-chloro-7-(5-fluoroindol-1-yl)-3,5-dihydro-2H-1,4-benzoxazepin-4-yl]methyl}pyridin-2-yl)methanamine] | 1 to 5 µM |  | 
O=C(O)c1cc(CN2CCOc3c(Cl)cc(-n4ccc5cc(F)ccc54)cc3C2)ccn1 [Compound 185, 4-{[9-chloro-7-(5-fluoroindol-1-yl)-3,5-dihydro-2H-1,4-benzoxazepin-4-yl]methyl}pyridine-2-carboxylic acid] | 0.1 to 0.5 µM | > 3.33 h | < 5 µL/min/mg
COC(=O)c1cc(CN2CCOc3c(Cl)cc(-n4ccc5cc(F)ccc54)cc3C2)ccn1 [Compound 186] | 0.1 to 0.5 µM |  | 
Fc1ccc2c(ccn2-c2cc(Cl)c3c(c2)CN(Cc2ccnc(C4CNC4)c2)CCO3)c1 [Compound 188, 4-{[2-(azetidin-3-yl)pyridin-4-yl]methyl}-9-chloro-7-(5-fluoroindol-1-yl)-3,5-dihydro-2H-1,4-benzoxazepine; trifluoroacetic acid] | > 5 µM |  | 
Fc1ccc2c(ccn2-c2cc(Cl)c3c(c2)CN(Cc2cc[nH]c(=S)c2)CCO3)c1 [Compound 189, 4-{[9-chloro-7-(5-fluoroindol-1-yl)-3,5-dihydro-2H-1,4-benzoxazepin-4-yl]methyl}-1H-pyridine-2-thione] | 0.1 to 0.5 µM | 0.833 to 1.67 h | > 20 µL/min/mg
Fc1ccc2c(ccn2-c2cc(Cl)c3c(c2)CN(Cc2ccnc(Cl)c2F)CCO3)c1 [Compound 190] | 1 to 5 µM |  | 

Structure (SMILES) | IC50 [1] | half-life at 1 μM [2] | microsomal CLint at 1 μM [2]
Cc1c(CN2CCOc3c(Cl)cc(-n4ccc5cc(F)ccc54)cc3C2)ccnc1Cl [Compound 191] | 1 to 5 µM |  | 
Fc1ccc2c(ccn2-c2cc(Cl)c3c(c2)CN(Cc2ccnc(Cl)c2C(F)(F)F)CCO3)c1 [Compound 192] | 0.1 to 0.5 µM |  | 
O=c1[nH]ccc(CN2CCOc3c(Cl)cc(-n4ccc5cc(F)ccc54)cc3C2)c1F [Compound 193] | < 0.1 µM | 0.833 to 1.67 h | 10 to 20 µL/min/mg
O=c1[nH]ccc(CN2CCOc3c(Cl)cc(-n4ccc5cc(F)ccc54)cc3C2)c1C(F)(F)F [Compound 195] | > 5 µM |  | 
COc1cc(CN2CCOc3c(Cl)cc(-n4ccc5cc(F)ccc54)cc3C2)cc(OC)n1 [Compound 197] | > 5 µM |  | 
O=C1NN=CC1CN1CCOc2c(Cl)cc(-n3ccc4cc(F)ccc43)cc2C1 (stereo not shown) [Compound 199] | 1 to 5 µM |  | 
Fc1ccc2c(ccn2-c2cc(Cl)c3c(c2)CN(Cc2cncnc2)C2(CC2)CO3)c1 [Compound 218] | > 5 µM |  | 
N#Cc1cccc(CN2Cc3cc(-n4ccc5cc(F)ccc54)cc(Cl)c3OCC23CC3)c1 [Compound 220] | > 5 µM |  | 
COc1cc(CN2CCOc3c(Cl)cc(-n4ccc5cc(F)ccc54)c(C)c3C2)ccn1 [Compound 221] | > 5 µM |  | 
Fc1ccc2c(ccn2-c2cc(Cl)c3c(c2)CN(Cc2cncnc2)CC3)c1 [Compound 222] | > 5 µM |  | 
COc1ncccc1CN1CCc2c(Cl)cc(-n3ccc4cc(F)ccc43)cc2C1 [Compound 223] | > 5 µM |  | 
COc1cc(CN2CCOc3c(Cl)cc(-n4ccc5cc(F)ccc54)cc32)ccn1 [Compound 224] | > 5 µM |  | 
[2H]C1([2H])c2cc(-n3ccc4cc(F)ccc43)cc(Cl)c2OC([2H])([2H])C([2H])([2H])N1Cc1cc[nH]c(=O)c1 [Compound 225] | 0.1 to 0.5 µM |  | 
[2H]C1([2H])c2cc(-n3ccc4cc(F)ccc43)cc(Cl)c2OCCN1Cc1cc[nH]c(=O)c1 [Compound 226] | 0.1 to 0.5 µM |  | 
[2H]C1([2H])Oc2c(Cl)cc(-n3ccc4cc(F)ccc43)cc2CN(Cc2cc[nH]c(=O)c2)C1([2H])[2H] [Compound 227] | < 0.1 µM |  | 
CC(c1cc[nH]c(=O)c1)N1CCOc2c(Cl)cc(-n3ccc4cc(F)ccc43)cc2C1 (stereo not shown) [Compound 228] | > 5 µM |  | 
O=c1cc(CN2Cc3cc(-n4ccc5cc(F)ccc54)cc(Cl)c3OCC23COC3)cc[nH]1 [Compound 229] | > 5 µM |  | 
O=c1cc(CN2Cc3cc(-n4ccc5cc(F)ccc54)cc(Cl)c3OCC23CC3)cc[nH]1 [Compound 230] | > 5 µM |  | 
O=c1cc(CN2Cc3cc(-n4ccc5cc(F)ccc54)cc(Cl)c3OCC2C2CC2)cc[nH]1 (stereo not shown) [Compound 231] | > 5 µM |  | 
CC1c2cc(-n3ccc4cc(F)ccc43)cc(Cl)c2OCCN1Cc1cc[nH]c(=O)c1 (stereo not shown) [Compound 235] | 0.5 to 1 µM |  | 
Cc1c(-n2ccc3cc(F)ccc32)cc(Cl)c2c1CN(Cc1cc[nH]c(=O)c1)CCO2 [Compound 238] | 1 to 5 µM |  | 
COCC1COc2c(Cl)cc(-n3ccc4cc(F)ccc43)cc2CN1Cc1cc[nH]c(=O)c1 (stereo not shown) [Compound 239] | 1 to 5 µM |  | 
O=c1cc(CN2CCc3c(Cl)cc(-n4ccc5cc(F)ccc54)cc3C2)cc[nH]1 [Compound 240] | > 5 µM |  | 
O=c1cc(CN2CCOc3c(Cl)cc(-n4ccc5cc(F)ccc54)cc32)cc[nH]1 [Compound 241] | > 5 µM |  | 
